Columns and labels:
[1] = target: T1, NFS1 E387A (Homo sapiens, UniProt Q9Y697, E387A); test: H2S-producing assay, NFS1 E387A mutant; type: biochemical
T1 construct: His tag (N); made in house; host or cells: E. coli BL21(DE3)
Experimental: (§1) To further validate the accuracy of the simulated results, the residues Cys158, Glu387, Lys157, and His156 were mutated to alanine using site-directed mutagenesis.
(§2) For the expression and purification of NFS1Δ1-55/ISD11 in E. coli, the plasmid pNFS1-ISD11 was transformed into BL21(DE3) cells. The cells were grown at 37 °C in 1 L cultures of LB medium containing chloramphenicol (50 μg/ml) until the optical density at 600 nm (OD600) reached 0.6–0.8. Protein expression was induced by adding 0.1 mM isopropyl β-D-1-thiogalactopyranoside (IPTG), followed by an additional 12 h of incubation at 25 °C. The cells were harvested by centrifugation at 8000 rpm for 10 min at 4 °C, then resuspended in lysis buffer containing 50 mM phosphate-buffered saline (PBS, pH 7.4), 500 mM NaCl, 100 mg/L lysozyme, 30 mM imidazole, and 1 mM phenylmethanesulfonyl fluoride (PMSF). The resuspended cells were incubated on ice for 1 h, followed by sonication using an Ultrasonic Cell Disruption System (Scientz, Ningbo, China). The supernatant was obtained by centrifugation at 12,000 rpm for 30 min at 4 °C and was loaded onto a HisTrap FF column (GE Healthcare, Chicago, MA, USA) pre-equilibrated with lysis buffer. […] The protein concentration was measured using a BCA protein assay reagent kit (TransGen Biotech, Beijing, China).

[2] = target: T2, NFS1 C158A (Homo sapiens, UniProt Q9Y697, C158A); test: H2S-producing assay, NFS1 C158A mutant; type: biochemical
T2 construct: His tag (N); made in house; host or cells: E. coli BL21(DE3)
Experimental: as §1, §2

[3] = tested on: A549 cells; test: Lipid peroxide (LPO) content; type: cell-based, human; conditions: 48 h, Erastin 2.5 µM, Compound 53 50 µM, 2-AAPA 20 µM, alone or combined
Experimental: A549 cells were seeded in 10 cm dishes at a density of 2 × 10^6 cells per dish and cultured until they reached 40–60% confluence. […] Lipid peroxidation (LPO) levels were measured using a Lipid Peroxide (LPO) Content Assay Kit (Solarbio, China) following the manufacturer’s instructions.

[4] = target: T3, human NFS1 (Homo sapiens, UniProt Q9Y697); test: NFS1 inhibition assay (H2S-producing, methylene blue); type: biochemical
T3 construct: His tag (N); made in house; host or cells: E. coli BL21(DE3)
Experimental: The 42 candidate compounds were tested for their inhibitory effects on human NFS1 using an in vitro H2S-producing assay. […] Subsequently, the effects of the selected compounds (100 µM) on human NFS1 activity were evaluated.
The activity of NFS1 was determined using a methylene blue assay as described previously, with some modifications. Briefly, reaction mixtures (200 μL) containing 50 mM of Tris-HCl (pH 8.0), 10 μM of PLP, 1 mM of DTT, and 10 μg of NFS1 were preincubated at 37 °C for 3 min. The reaction was then initiated by adding 1 mM of cysteine. After 15 min of incubation at 37 °C, the reaction was quenched by adding 25 μL of 20 mM N,N-dimethyl-p-phenylenediamine in 7.2 M of HCl and 25 μL of 30 mM FeCl3 in 1.2 M of HCl. Subsequently, the reaction mixtures were incubated for another 15 min at 37 °C, followed by centrifugation at 12,000 rpm for 10 minutes to remove the precipitates. The absorbance of the supernatant was measured at 670 nm. A reaction mixture without the substrate cysteine was used as the negative control. The H2S concentration was calculated based on a standard curve prepared using various concentrations of sodium sulfide (Na2S).
For the NFS1 inhibition assays, all test compounds were dissolved in dimethyl sulfoxide (DMSO) to prepare 10 mM stock solutions, which were stored at −80 °C. The stock solutions were diluted to the appropriate concentrations with 50 mM of Tris-HCl (pH 8.0) as required for the experiments. A reaction mixture containing DMSO but no test compounds was used as a negative control. The dose-dependent effects of the inhibitors on NFS1 activity were determined using the methylene blue assay described above. The IC50 values of the inhibitors were calculated by adding different concentrations of the inhibitors to the enzyme reaction mixtures.

[5] = target: T4, NFS1 K157A (Homo sapiens, UniProt Q9Y697, K157A); test: H2S-producing assay, NFS1 K157A mutant; type: biochemical
T4 construct: His tag (N); made in house; host or cells: E. coli BL21(DE3)
Experimental: as §1, §2

[6] = tested on: A549 cells; test: Endogenous ROS levels, DCFH-DA fluorescence; type: cell-based, human; conditions: 48 h, Compound 53 50 µM, Erastin 2.5 µM, 2-AAPA 20 µM
Experimental: Endogenous ROS levels in A549 cells were detected using the fluorescent dye DCFH-DA [48, 49]. A549 cells were cultured in DMEM supplemented with 10% fetal bovine serum at 37 °C in a humidified atmosphere containing 5% CO2. […] Subsequently, the cells were washed three times with prewarmed PBS, and fresh medium containing 10 μM of DCFH-DA was added. After 30 min of incubation, the cells were washed again with prewarmed PBS, fresh medium was added, and the cells were imaged using an inverted fluorescence microscope (Leica, Wetzlar, Germany). Images of live cells were acquired in six different fields. ImageJ software was used to analyze the images.

[7] = tested on: A549 cells; test: Cellular iron content by atomic absorption spectroscopy; type: cell-based, human; conditions: 50 µM, 48 h
Experimental: A549 cells were seeded in a 6-well plate and grown to 40–60% confluence. […] The cells were then washed three times with PBS and digested with 0.25% trypsin (Servicebio, Wuhan, China) for 2 min. The cells were divided into two equal groups: group A and group B. In group A, the cells were lysed with RIPA lysis buffer supplemented with 1 mM of PMSF to extract the total proteins. Protein concentrations were measured using a BCA protein assay reagent kit. In group B, the cells were treated with concentrated nitric acid at 70 °C for 2 h. Once the cells were completely nitrated, the temperature was increased to 150 °C until the nitric acid had completely evaporated. Subsequently, the samples were diluted to 10 mL with a solution containing 1% HNO3 and 0.1% KCl, and the iron levels were measured using atomic absorption spectroscopy (AAS; Analytik Jena AG, Jena, Germany). The iron content was calculated based on the standard curve, and the values were normalized to the protein concentration.

[8] = target: T5, NFS1 H156A (Homo sapiens, UniProt Q9Y697, H156A); test: H2S-producing assay, NFS1 H156A mutant; type: biochemical
T5 construct: His tag (N); made in house; host or cells: E. coli BL21(DE3)
Experimental: as §1, §2

T3 sequence (Q9Y697 56-457): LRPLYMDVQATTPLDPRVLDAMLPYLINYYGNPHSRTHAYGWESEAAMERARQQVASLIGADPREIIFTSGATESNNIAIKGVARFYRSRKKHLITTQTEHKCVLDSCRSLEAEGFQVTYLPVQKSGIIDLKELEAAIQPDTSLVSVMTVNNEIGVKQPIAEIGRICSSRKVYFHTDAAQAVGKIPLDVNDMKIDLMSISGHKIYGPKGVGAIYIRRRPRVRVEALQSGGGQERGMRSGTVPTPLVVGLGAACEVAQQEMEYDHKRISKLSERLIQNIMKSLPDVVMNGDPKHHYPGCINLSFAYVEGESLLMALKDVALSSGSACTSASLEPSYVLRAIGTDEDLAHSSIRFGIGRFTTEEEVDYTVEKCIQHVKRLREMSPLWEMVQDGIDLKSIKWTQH
T1 sequence (Q9Y697 56-457 E387A): as the sequence (Q9Y697 56-457) above, with E332A counted along it
T2 sequence (Q9Y697 56-457 C158A): as the sequence (Q9Y697 56-457) above, with C103A counted along it
T5 sequence (Q9Y697 56-457 H156A): as the sequence (Q9Y697 56-457) above, with H101A counted along it
T4 sequence (Q9Y697 56-457 K157A): as the sequence (Q9Y697 56-457) above, with K102A counted along it

What does the source list for COc1cc(/C=N/NC(=O)COc2ccc(Cl)cc2Cl)ccc1O [Compound 53]?
IC50 [1]: 105 ± 3.17 µM; IC50 [2]: 114 ± 3.45 µM; intracellular lipid peroxide (LPO) levels [3]: no significant changes; IC50 [4]: 40.5 ± 3.85 µM; Ki [4]: 6.4 ± 0.48 µM; Vmax ([4]; inhibitor 5 μM): 144.2 ± 2.81 nmol/min/mg; Vmax ([4]; inhibitor 10 μM): 143.3 ± 4.06 nmol/min/mg; Vmax ([4]; inhibitor 20 μM): 144.1 ± 4.88 nmol/min/mg; Vmax ([4]; inhibitor 50 μM): 143.5 ± 4.31 nmol/min/mg; Vmax ([4]; inhibitor 100 μM): 143.8 ± 8.75 nmol/min/mg; inhibition at 50 µM ([4]; read-out: inhibition of NFS1 activity): 40 to 50%; Inhibition Type ([4]; versus substrate L-cysteine): competitive inhibitors; IC50 [5]: 53.2 ± 6.44 µM; intracellular ROS levels [6]: did not significantly affect intracellular ROS levels; cellular iron content [7]: significantly increased the cellular iron content; IC50 [8]: 97.3 ± 1.39 µM

Reference: publication PMC11942905, “Identification of a Selective Inhibitor of Human NFS1, a Cysteine Desulfurase Involved in Fe-S Cluster Assembly, via Structure-Based Virtual Screening” (International Journal of Molecular Sciences, 2025)
